The experiment deals with human P2X3 receptor (Homo sapiens (Human), UniProt P56373). The experiment can be described thus: Evaluation of human P2X3 receptor inhibitory activity (Test Example 1). It counts as cell-based. Conditions: C6BU-1 cell transfected with human P2X3 receptor gene, FLIPR 384. In short, it runs like this: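 FLIPR calcium read-out: signal taken as peak fluorescence after ATP addition divided by starting fluorescence, and IC50 calculated from it. Compound added 5 min before 150 nM ATP solution (pre-dispense stock) to Fluo-3-AM-loaded C6BU-1 cells stably transfected with human P2X3; HEPES buffer pH 7.5 with probenecid.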
human P2X3 receptor, sequence (P56373 whole entry): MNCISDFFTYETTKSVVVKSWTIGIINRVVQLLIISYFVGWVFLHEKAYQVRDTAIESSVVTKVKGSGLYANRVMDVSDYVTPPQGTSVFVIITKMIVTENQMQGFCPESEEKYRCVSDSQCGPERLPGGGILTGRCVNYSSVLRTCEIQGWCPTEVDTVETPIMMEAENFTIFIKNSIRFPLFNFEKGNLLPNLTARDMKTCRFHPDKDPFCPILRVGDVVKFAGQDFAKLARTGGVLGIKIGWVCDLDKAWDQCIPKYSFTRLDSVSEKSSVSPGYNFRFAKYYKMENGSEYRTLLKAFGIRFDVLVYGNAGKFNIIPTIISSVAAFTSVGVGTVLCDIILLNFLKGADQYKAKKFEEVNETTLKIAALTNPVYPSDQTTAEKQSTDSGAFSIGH
Turning to `COC(=O)[C@@H](C)Cn1c(=O)[nH]/c(=N\c2ccc(Oc3cccnn3)cc2)n(Cc2ccc(Cl)cc2)c1=O` [Compound R-119], the midpoint of inhibition, the IC50, lay at 5 nM. `C[C@@H](Cn1c(=O)[nH]/c(=N\c2ccc(Oc3cccnn3)cc2)n(Cc2ccc(Cl)cc2)c1=O)C(=O)O` [Compound R-120]: inhibition was half-maximal at 8 nM (IC50). Under `CC(C)(Cn1c(=O)[nH]/c(=N\c2ccc(Oc3cncc(F)c3)c(F)c2)n(Cc2ccc(Cl)cc2)c1=O)C(=O)O` [Compound R-121] stands 5 nM; under `COC(=O)[C@H](C)[C@H](C)n1c(=O)[nH]/c(=N\c2ccc(Oc3cnccn3)c(F)c2)n(Cc2ccc(Cl)cc2)c1=O` [Compound R-122], 13 nM.

For the molecule `C[C@@H](Cn1c(=O)[nH]/c(=N\c2ccc(Oc3ccnc(C#N)c3)cc2)n(Cc2ccc(Cl)cc2)c1=O)C(=O)O` [Compound R-123], 5 nM corresponded to half-maximal inhibition (IC50).

`C[C@@H](Cn1c(=O)[nH]/c(=N\c2ccc(Oc3cc(Cl)ncn3)cc2)n(Cc2ccc(Cl)cc2)c1=O)C(=O)O` [Compound R-124]: the IC50 stood at 9 nM. Take `C[C@@H](C(=O)O)[C@H](C)n1c(=O)[nH]/c(=N\c2ccc(Oc3cnccn3)c(F)c2)n(Cc2ccc(Cl)cc2)c1=O` [Compound R-125]: 7 nM corresponded to half-maximal inhibition (IC50). Under `CC(C)(Cn1c(=O)[nH]/c(=N\c2ccc(Oc3cc(O)nc(F)c3)cc2)n(Cc2ccc(Cl)cc2)c1=O)C(=O)O` [Compound R-126] stands 10 nM; under `CCc1[nH]c2ccc(/N=c3\[nH]c(=O)n([C@@H](C)[C@@H](C)C(=O)OC)c(=O)n3Cc3ccc(Cl)cc3)cc2c1C` [Compound R-127], 90 nM.

Regarding `CCc1[nH]c2ccc(/N=c3\[nH]c(=O)n([C@@H](C)[C@@H](C)C(=O)O)c(=O)n3Cc3ccc(Cl)cc3)cc2c1C` [Compound R-128], the half-maximal inhibitory concentration (IC50) is 11 nM. The molecule `COC(=O)C(C)(C)Cn1c(=O)[nH]/c(=N\c2ccc(Oc3cnccn3)c(C)c2)n(Cc2ccc(Cl)cc2)c1=O` [Compound R-129] displayed a 50% inhibitory concentration (IC50) of 7 nM. `Cc1cc(/N=c2\[nH]c(=O)n(C[C@H](C)C(=O)O)c(=O)n2Cc2ccc(Cl)cc2)ccc1Oc1cnccn1` [Compound R-130] registered an IC50 of 9 nM. As to `Cc1cc(/N=c2\[nH]c(=O)n(CC(C)(C)C(=O)O)c(=O)n2Cc2ccc(Cl)cc2)ccc1Oc1cnccn1` [Compound R-131], half-maximal inhibition (IC50) required 9 nM. Under `COC(=O)[C@@H](C)Cn1c(=O)[nH]/c(=N\c2ccc(Oc3ncc(C)s3)cc2)n(Cc2ccc(Cl)cc2)c1=O` [Compound R-132] stands 10 nM; under `Cc1cnc(Oc2ccc(/N=c3\[nH]c(=O)n(C[C@H](C)C(=O)O)c(=O)n3Cc3ccc(Cl)cc3)cc2)s1` [Compound R-133], 6 nM; under `COC(=O)[C@@H](C)Cn1c(=O)[nH]/c(=N\c2ccc(Oc3ncns3)cc2)n(Cc2ccc(Cl)cc2)c1=O` [Compound R-134], 5 nM.

The molecule `COC(=O)[C@@H](C)Cn1c(=O)[nH]/c(=N\c2ccc(Oc3nc(C)ns3)cc2)n(Cc2ccc(Cl)cc2)c1=O` [Compound R-135] displayed a concentration for half-maximal inhibition (IC50) of 5 nM. Consider `COC(=O)C(C)(C)Cn1c(=O)[nH]/c(=N\c2ccc(Oc3ncns3)cc2)n(Cc2ccc(Cl)cc2)c1=O` [Compound R-136], for which the IC50 was 6 nM. With `COC(=O)C(C)(C)Cn1c(=O)[nH]/c(=N\c2ccc(Oc3nc(C)ns3)cc2)n(Cc2ccc(Cl)cc2)c1=O` [Compound R-137], the 50% inhibitory concentration (IC50) is 6 nM.

`COC(=O)[C@@H](C)Cn1c(=O)[nH]/c(=N\c2ccc(N3CCCCC3)c(C)c2)n(Cc2ccc(Cl)cc2)c1=O` [Compound R-138] came in with an IC50 of 78 nM. Consider `COC(=O)C(C)(C)Cn1c(=O)[nH]/c(=N\c2ccc(N3CCCCC3)c(C)c2)n(Cc2ccc(Cl)cc2)c1=O` [Compound R-139], for which half-maximal inhibition (IC50) was put at 119 nM. `COC(=O)[C@@H](C)Cn1c(=O)[nH]/c(=N\c2ccc(N3CCCCC3)c(F)c2)n(Cc2ccc(Cl)cc2)c1=O` [Compound R-140] gave an IC50 of 37 nM. Under `COC(=O)C(C)(C)Cn1c(=O)[nH]/c(=N\c2ccc(N3CCCCC3)c(F)c2)n(Cc2ccc(Cl)cc2)c1=O` [Compound R-141] stands 47 nM; under `Cc1cc(/N=c2\[nH]c(=O)n(C[C@H](C)C(=O)O)c(=O)n2Cc2ccc(Cl)cc2)ccc1N1CCCCC1` [Compound R-142], 69 nM.

On to `Cc1cc(/N=c2\[nH]c(=O)n(CC(C)(C)C(=O)O)c(=O)n2Cc2ccc(Cl)cc2)ccc1N1CCCCC1` [Compound R-143], for which the half-inhibitory concentration (IC50) turned out to be 97 nM. Under `C[C@@H](Cn1c(=O)[nH]/c(=N\c2ccc(Oc3nc4ccccc4o3)cc2)n(Cc2ccc(Cl)cc2)c1=O)C(=O)O` [Compound R-144] stands 5 nM; under `C[C@@H](Cn1c(=O)[nH]/c(=N\c2ccc(Oc3nc(C(F)(F)F)ns3)cc2)n(Cc2ccc(Cl)cc2)c1=O)C(=O)O` [Compound R-145], 11 nM. Regarding `C[C@@H](Cn1c(=O)[nH]/c(=N\c2ccc(N3CCCCC3)c(F)c2)n(Cc2ccc(Cl)cc2)c1=O)C(=O)O` [Compound R-146], the IC50 turned out to be 33 nM. As for `CC(C)(Cn1c(=O)[nH]/c(=N\c2ccc(N3CCCCC3)c(F)c2)n(Cc2ccc(Cl)cc2)c1=O)C(=O)O` [Compound R-147], the half-maximal inhibitory concentration (IC50) was 51 nM. Molecule `COC(=O)C(C)(C)Cn1c(=O)[nH]/c(=N\c2ccc(Oc3cccnn3)cc2)n(Cc2ccc(Cl)cc2)c1=O` [Compound R-148] displayed an IC50 of 5 nM. Under `COC(=O)C(C)(C)Cn1c(=O)[nH]/c(=N\c2ccc(Oc3ncc(C)s3)cc2)n(Cc2ccc(Cl)cc2)c1=O` [Compound R-149] stands 12 nM; under `COC(=O)[C@H](C)[C@H](C)n1c(=O)[nH]/c(=N\c2ccc(Oc3ccnc(Cl)c3)cc2)n(Cc2ccc(Cl)cc2)c1=O` [Compound R-150], 18 nM. To `CC(C)(Cn1c(=O)[nH]/c(=N\c2ccc(Oc3cccnn3)cc2)n(Cc2ccc(Cl)cc2)c1=O)C(=O)O` [Compound R-151] belongs 11 nM; to `COC(=O)[C@@H](C)Cn1c(=O)[nH]/c(=N\c2ccc(Oc3ccc(CO)nc3)cc2)n(Cc2ccc(Cl)cc2)c1=O` [Compound R-152], 5 nM; to `Cc1cnc(Oc2ccc(/N=c3\[nH]c(=O)n(CC(C)(C)C(=O)O)c(=O)n3Cc3ccc(Cl)cc3)cc2)s1` [Compound R-153], 8 nM. Take `C[C@@H](Cn1c(=O)[nH]/c(=N\c2ccc(Oc3ccc(CO)nc3)cc2)n(Cc2ccc(Cl)cc2)c1=O)C(=O)O` [Compound R-155]: the midpoint of inhibition, the IC50, lay at 10 nM. To `COC(=O)[C@H](C)[C@H](C)n1c(=O)[nH]/c(=N\c2ccc(Oc3cc(F)nc(F)c3)cc2)n(Cc2ccc(Cl)cc2)c1=O` [Compound R-156] belongs 35 nM; to `C[C@@H](C(=O)O)[C@H](C)n1c(=O)[nH]/c(=N\c2ccc(Oc3cc(F)nc(F)c3)cc2)n(Cc2ccc(Cl)cc2)c1=O` [Compound R-157], 6 nM. In turn, `COC(=O)[C@H](C)[C@H](C)n1c(=O)[nH]/c(=N\c2ccc(Oc3cnccn3)c(C)c2)n(Cc2ccc(Cl)cc2)c1=O` [Compound R-158] showed a half-maximal inhibitory concentration (IC50) of 12 nM. Under `COC(=O)[C@H](C)[C@H](C)n1c(=O)[nH]/c(=N\c2ccc(Oc3cnc(Cl)cn3)cc2)n(Cc2ccc(Cl)cc2)c1=O` [Compound R-159] stands 18 nM; under `Cc1nsc(Oc2ccc(/N=c3\[nH]c(=O)n(C[C@H](C)C(=O)O)c(=O)n3Cc3ccc(Cl)cc3)cc2)n1` [Compound R-160], 8 nM. `Cc1cc(/N=c2\[nH]c(=O)n([C@@H](C)[C@@H](C)C(=O)O)c(=O)n2Cc2ccc(Cl)cc2)ccc1Oc1cnccn1` [Compound R-161] gave a concentration for half-maximal inhibition (IC50) of 10 nM. Molecule `C[C@@H](C(=O)O)[C@H](C)n1c(=O)[nH]/c(=N\c2ccc(Oc3cnc(Cl)cn3)cc2)n(Cc2ccc(Cl)cc2)c1=O` [Compound R-162] yielded an IC50 of 6 nM. Turning to `CC(C)(Cn1c(=O)[nH]/c(=N\c2ccc(Oc3ncns3)cc2)n(Cc2ccc(Cl)cc2)c1=O)C(=O)O` [Compound R-163], the IC50 turned out to be 14 nM.

Consider `C[C@@H](Cn1c(=O)[nH]/c(=N\c2ccc(Oc3ncccn3)c(F)c2)n(Cc2ccc(Cl)cc2)c1=O)C(=O)O` [Compound R-164], for which the IC50 turned out to be 10 nM.

In turn, `CC(C)(Cn1c(=O)[nH]/c(=N\c2ccc(Oc3ncccn3)c(F)c2)n(Cc2ccc(Cl)cc2)c1=O)C(=O)O` [Compound R-165] had an IC50 of 14 nM. Under `CCn1c(=O)[nH]/c(=N\c2ccc(Oc3ccc(Cl)nc3C#N)cc2)n(Cc2ccc(Cl)cc2)c1=O` [Compound R-166] stands 48 nM. `COC(=O)[C@H](C)[C@H](C)n1c(=O)[nH]/c(=N\c2ccc(Oc3cnccn3)cc2)n(Cc2ccc(Cl)cc2)c1=O` [Compound R-167]: half-maximal inhibition (IC50) was put at 11 nM. Turning to `C[C@@H](C(=O)O)[C@H](C)n1c(=O)[nH]/c(=N\c2ccc(Oc3cnccn3)cc2)n(Cc2ccc(Cl)cc2)c1=O` [Compound R-168], the concentration for half-maximal inhibition (IC50) is 17 nM. To `CCn1c(=O)[nH]/c(=N\c2ccc(Oc3ccc(Cl)nc3C(=O)O)cc2)n(Cc2ccc(Cl)cc2)c1=O` [Compound R-169] belongs 304 nM; to `O=c1[nH]c(=O)n(Cc2ccc(Cl)cc2)/c(=N/c2ccc(Oc3ccc(F)cn3)cc2)[nH]1` [Compound R-170], 193 nM; to `CCOC(=O)C[C@H](O)Cn1c(=O)[nH]/c(=N\c2ccc(OC(C)C)c(Cl)c2)n(Cc2ccc(Cl)cc2)c1=O` [Compound R-171], 33 nM. In turn, `CCOC(=O)C[C@H](O)Cn1c(=O)[nH]/c(=N\c2ccc3oc(CC)c(C)c3c2)n(Cc2ccc(Cl)cc2)c1=O` [Compound R-172] displayed a half-maximal inhibitory concentration (IC50) of 33 nM.

Take `CCc1oc2ccc(/N=c3\[nH]c(=O)[nH]c(=O)n3Cc3ccc(Cl)cc3)cc2c1C` [Compound R-173]: it took 376 nM to reach half-maximal inhibition (IC50).

The molecule `COC(=O)[C@@H](C)Cn1c(=O)[nH]/c(=N\c2ccc(Oc3ccc(C)nn3)c(F)c2)n(Cc2ccc(Cl)cc2)c1=O` [Compound R-174] gave a half-inhibitory concentration (IC50) of 10 nM. Under `COC(=O)C(C)(C)Cn1c(=O)[nH]/c(=N\c2ccc(Oc3ccc(C)nn3)c(F)c2)n(Cc2ccc(Cl)cc2)c1=O` [Compound R-175] stands 19 nM.

For the origin of these results see patent publication US10065941B2, “Aminotriazine derivative and pharmaceutical composition comprising the same” (Shionogi & Co., Ltd., priority 2013, dated 2018).
